Laboratory results taken from patent publication US10597388B2, “Pyridazinone herbicides” (FMC CORPORATION, priority 2014, dated 2020).

Legend:
Experiment in all cases: Test C greenhouse herbicide test, pre- and postemergence
Assay type in all cases: in vivo
[1] = tested on: blackgrass (Alopecurus myosuroides)
Description: (§1) Seeds of plant species selected from blackgrass (Alopecurus myosuroides), ryegrass, Italian (Italian ryegrass, Lolium multiflorum), wheat (winter wheat, Triticum aestivum), galium (catchweed bedstraw, Galium aparine), corn (Zea mays), large crabgrass, large (large crabgrass, Digitaria sanguinalis), foxtail, giant (giant foxtail, Setaria faberii), johnsongrass (Sorghum halepense), lambsquarters (Chenopodium album), morningglory (Ipomoea coccinea), nutsedge, yellow (yellow nutsedge, Cyperus esculentus), pigweed (Amaranthus retroflexus), ragweed (common ragweed, Ambrosia elatior), soybean (Glycine max), barnyardgrass (Echinochloa crus-galli), oilseed rape (Brassica napus), waterhemp (common waterhemp, Amaranthus rudis), and velvetleaf (Abutilon theophrasti) were planted into a blend of loam soil and sand and treated preemergence with test chemicals formulated in a non-phytotoxic solvent mixture which included a surfactant.
(§2) At the same time, plants selected from these crop and weed species and also chickweed (common chickweed, Stellaria media), kochia (Kochia scoparia), and oat, wild (wild oat, Avena fatua), were planted in pots containing Redi-Earth® planting medium (Scotts Company, 14111 Scottslawn Road, Marysville, Ohio 43041) comprising spaghnum peat moss, vermiculite, wetting agent and starter nutrients and treated with postemergence applications of test chemicals formulated in the same manner. Plants ranged in height from 2 to 18 cm (1- to 4-leaf stage) for postemergence treatments. Treated plants and controls were maintained in a greenhouse for 13 to 15 d, after which time all species were compared to controls and visually evaluated. Plant response ratings, summarized in Table C, are based on a scale of 0 to 100 where 0 is no effect and 100 is complete control. A dash (-) response means no test result.

[2] = tested on: galium (catchweed bedstraw, Galium aparine)
Description: as §1, §2

[3] = tested on: waterhemp (common waterhemp, Amaranthus rudis)
Description: as §1, §2

[4] = tested on: lambsquarters (Chenopodium album)
Description: as §1, §2

[5] = tested on: morningglory (Ipomoea coccinea)
Description: as §1, §2

[6] = tested on: oilseed rape (Brassica napus)
Description: as §1, §2

[7] = tested on: crabgrass, large (large crabgrass, Digitaria sanguinalis)
Description: as §1, §2

[8] = tested on: ragweed (common ragweed, Ambrosia elatior)
Description: as §1, §2

[9] = tested on: ryegrass, Italian (Italian ryegrass, Lolium multiflorum)
Description: as §1, §2

[10] = tested on: foxtail, giant (giant foxtail, Setaria faberii)
Description: as §1, §2

[11] = tested on: nutsedge, yellow (yellow nutsedge, Cyperus esculentus); conditions: Preemergence; for Plant response rating, Nutsedge, Yellow: scale 0 to 100, 0 is no effect, 100 is complete control
Description: as §1, §2

[12] = tested on: corn (Zea mays)
Description: as §1, §2

[13] = tested on: velvetleaf (Abutilon theophrasti)
Description: as §1, §2

[14] = tested on: barnyardgrass (Echinochloa crus-galli)
Description: as §1, §2

[15] = tested on: soybean (Glycine max)
Description: as §1, §2

[16] = Postemergence, 31 g ai/ha, 0 to 100 scale (0 no effect, 100 complete control)
[17] = Postemergence, 125 g ai/ha, scale 0 to 100, 0 is no effect, 100 is complete control
[18] = Postemergence, 250 g ai/ha, scale 0 to 100, 0 no effect, 100 complete control, 13 to 15 d
[19] = Preemergence, 31 g ai/ha, scale 0 to 100, 0 is no effect, 100 is complete control
[20] = Preemergence, 62 g ai/ha, scale 0 to 100, 0 is no effect, 100 is complete control
[21] = Preemergence, 125 g ai/ha, scale 0 to 100, 0 is no effect, 100 is complete control
[22] = Preemergence, 250 g ai/ha, scale 0 to 100, 0 no effect, 100 complete control
[23] = postemergence, 62 g ai/ha, scale 0 to 100, 0 no effect, 100 complete control

CCc1oc2ccc(C)cc2c1-c1c(O)c(C)nn(C)c1=O [Compound 10, 4-(2-ethyl-5-methyl-3-benzofuranyl)-5-hydroxy-2,6-dimethyl-3(2H)-pyridazinone]
Blackgrass plant response rating [1, 16]: 0 | Plant response rating, Blackgrass [1, 17]: 10 | Plant response rating, Blackgrass [1, 18]: 15 | Plant response rating, Blackgrass [1, 19]: 0 | Plant response rating, Blackgrass [1, 20]: 0 | Plant response rating, Blackgrass [1, 21]: 0 | Blackgrass plant response rating [1, 22]: 0 | Blackgrass plant response rating [1, 23]: 0 | Galium plant response rating [2, 16]: 5 | Plant response rating, Galium [2, 17]: 70 | Plant response rating, Galium [2, 18]: 85 | Plant response rating, Galium [2, 19]: 0 | Plant response rating, Galium [2, 20]: 5 | Plant response rating, Galium [2, 21]: 5 | Galium plant response rating [2, 22]: 45 | Galium plant response rating [2, 23]: 50 | Waterhemp plant response rating [3, 16]: 40 | Plant response rating, Waterhemp [3, 17]: 50 | Plant response rating, Waterhemp [3, 18]: 90 | Plant response rating, Waterhemp [3, 20]: 0 | Plant response rating, Waterhemp [3, 21]: 100 | Waterhemp plant response rating [3, 22]: 90 | Waterhemp plant response rating [3, 23]: 45 | Lambsquarters plant response rating [4, 16]: 50 | Plant response rating, Lambsquarters [4, 17]: 65 | Plant response rating, Lambsquarters [4, 18]: 98 | Plant response rating, Lambsquarters [4, 19]: 0 | Plant response rating, Lambsquarters [4, 20]: 0 | Lambsquarters plant response rating [4, 22]: 30 | Lambsquarters plant response rating [4, 23]: 80 | Morningglory plant response rating [5, 16]: 55 | Plant response rating, Morningglory [5, 17]: 100 | Plant response rating, Morningglory [5, 18]: 100 | Plant response rating, Morningglory [5, 19]: 0 | Plant response rating, Morningglory [5, 20]: 0 | Plant response rating, Morningglory [5, 21]: 25 | Morningglory plant response rating [5, 22]: 55 | Morningglory plant response rating [5, 23]: 90 | Oilseed Rape plant response rating [6, 16]: 0 | Plant response rating, Oilseed Rape [6, 17]: 0 | Plant response rating, Oilseed Rape [6, 18]: 0 | Plant response rating, Oilseed Rape [6, 19]: 0 | Plant response rating, Oilseed Rape [6, 20]: 0 | Plant response rating, Oilseed Rape [6, 21]: 0 | Oilseed Rape plant response rating [6, 22]: 0 | Oilseed Rape plant response rating [6, 23]: 0 | Crabgrass, Large plant response rating [7, 16]: 10 | Plant response rating, Crabgrass, Large [7, 17]: 65 | Plant response rating, Crabgrass, Large [7, 18]: 75 | Plant response rating, Crabgrass, Large [7, 19]: 0 | Plant response rating, Crabgrass, Large [7, 20]: 0 | Plant response rating, Crabgrass, Large [7, 21]: 0 | Crabgrass, Large plant response rating [7, 22]: 0 | Crabgrass, Large plant response rating [7, 23]: 30 | Ragweed plant response rating [8, 16]: 5 | Plant response rating, Ragweed [8, 17]: 70 | Plant response rating, Ragweed [8, 18]: 98 | Plant response rating, Ragweed [8, 19]: 0 | Plant response rating, Ragweed [8, 20]: 0 | Plant response rating, Ragweed [8, 21]: 0 | Ragweed plant response rating [8, 22]: 5 | Ragweed plant response rating [8, 23]: 30 | Ryegrass, Italian plant response rating [9, 16]: 5 | Plant response rating, Ryegrass, Italian [9, 17]: 20 | Plant response rating, Ryegrass, Italian [9, 18]: 55 | Plant response rating, Ryegrass, Italian [9, 19]: 0 | Plant response rating, Ryegrass, Italian [9, 20]: 0 | Plant response rating, Ryegrass, Italian [9, 21]: 25 | Ryegrass, Italian plant response rating [9, 22]: 80 | Ryegrass, Italian plant response rating [9, 23]: 5 | Foxtail, Giant plant response rating [10, 16]: 70 | Plant response rating, Foxtail, Giant [10, 17]: 50 | Plant response rating, Foxtail, Giant [10, 18]: 90 | Plant response rating, Foxtail, Giant [10, 19]: 0 | Plant response rating, Foxtail, Giant [10, 20]: 0 | Plant response rating, Foxtail, Giant [10, 21]: 0 | Foxtail, Giant plant response rating [10, 22]: 0 | Foxtail, Giant plant response rating [10, 23]: 60 | Plant response rating, Nutsedge, Yellow ([11]; 31 g ai/ha): 0 | Plant response rating, Nutsedge, Yellow ([11]; 62 g ai/ha): 0 | Plant response rating, Nutsedge, Yellow ([11]; 125 g ai/ha): 0 | Nutsedge, Yellow plant response rating ([11]; 250 g ai/ha, scale 0 to 100, 0 no effect, 100 complete control): 0 | Corn plant response rating [12, 16]: 0 | Plant response rating, Corn [12, 17]: 5 | Plant response rating, Corn [12, 18]: 5 | Plant response rating, Corn [12, 19]: 0 | Plant response rating, Corn [12, 20]: 0 | Plant response rating, Corn [12, 21]: 0 | Corn plant response rating [12, 22]: 5 | Corn plant response rating [12, 23]: 0 | Velvetleaf plant response rating [13, 16]: 40 | Plant response rating, Velvetleaf [13, 17]: 40 | Plant response rating, Velvetleaf [13, 18]: 70 | Plant response rating, Velvetleaf [13, 20]: 0 | Plant response rating, Velvetleaf [13, 21]: 10 | Velvetleaf plant response rating [13, 22]: 50 | Velvetleaf plant response rating [13, 23]: 45 | Barnyardgrass plant response rating [14, 16]: 35 | Plant response rating, Barnyardgrass [14, 17]: 90 | Plant response rating, Barnyardgrass [14, 18]: 98 | Plant response rating, Barnyardgrass [14, 19]: 0 | Plant response rating, Barnyardgrass [14, 20]: 5 | Plant response rating, Barnyardgrass [14, 21]: 5 | Barnyardgrass plant response rating [14, 22]: 5 | Barnyardgrass plant response rating [14, 23]: 90 | Soybean plant response rating [15, 16]: 0 | Plant response rating, Soybean [15, 17]: 0 | Plant response rating, Soybean [15, 18]: 0 | Plant response rating, Soybean [15, 20]: 0 | Plant response rating, Soybean [15, 21]: 0 | Soybean plant response rating [15, 22]: 0 | Soybean plant response rating [15, 23]: 0
